Test system: neonatal cardiomyocytes
Assay: Intracellular Ca2+ measurements (fura 2) and cell shortening detection
Type: cell-based, rats
Details: maximal isoproterenol stimulation; uninfected and Ad.RSV.PL-infected (10 pfu/cell) cardiomyocytes, 1 Hz
Procedure: Spontaneously beating cardiomyocytes were prepared from 1 to 2 day old rats and cultured in P-10 medium (GIBCO,BRL) in the presence of 5% fetal calf serum and 10% horse serum for 3 days as described previously in Kang J.X. et al., Proc. Natl. Acad. Sci. U.S.A., 1995, 92:[…] and Kang J.X. and Leaf A., Euro. J. Pharmacol., 1996, 297:97-106, the contents of which are incorporated herein by reference. Measurements of cell shortening and cytosolic Ca^2+ were performed on neonatal cardiomyocytes cultured on round, coated, glass coverslips (0.1 mm thickness, 31 mm diameter) in 35 mm culture dishes. Cells were counted using a hemocytometer. Approximately 5x10^5 cells were plated in each coverslip.
Measurements of intracellular Ca^2+ and cell shortening were performed as described earlier in Hajjar et al. (1997), Kang et al. (1995) and Kang et al (1996), the contents of which are incorporated herein by reference. […] A dual excitation spectrofluorometer (IONOPTIX) was used to record fluorescence emissions (505 nm) elicited from exciting wavelengths of 360 and 380 nm. […] High-contrast microspheres attached to the cell surface of the cardiomyocytes were imaged using a charge-coupled device video camera attached to the microscope, and motion along a selected raster line segment who quantified by a video motion detector system (IONOPTIX).

CC(C)NCC(O)c1ccc(O)c(O)c1 (stereo not shown) [isoproterenol]
time course of the Ca^2+ transients: decreased to the same level

Reference: patent publication EP1374909A2, “Evaluation of, delivery of, and use of agents to treat heart disorders” (THE GENERAL HOSPITAL CORPORATION, priority 1997, dated 1999)
